Measurements reported in patent publication EP1637537A1, “New medicaments” (Riemser Arzneimittel AG, priority 2004, dated 2006).

Legend:
[1] = system: Speichelfluß; test: Saliva flow rate before and after intake, clinical study; format: in vivo, männlichen und weiblichen gesunden Probanden; conditions: oral 100 mg as Vagantin®; before and after intake (Figur 3)
Protocol: (§1) In einer klinischen Studie an 10 männlichen und weiblichen gesunden Probanden im Alter zwischen 20 und 60 Jahren wurde die Ausschaltung bzw. Verzögerung des Würgereizes und der Verminderung des Speichelflusses bei ärztlichen oder zahnärztlichen Manipulationen im Rachenraum geprüft.
(§2) Die obengenannte Filmtablettenformulierung bzw. die dort genannte Lösung von 100 mg Methantheliniumbromid in Wasser als Frischlösung wurde auch hier verwendet.
(§3) Nach Würgereizstimulus wurde die Würgereflexhemmung unmittelbar nach Applikation, sowie im Abstand von 1, 2 und 6 Stunden danach geprüft. Gleichzeitig wurde die Speichelflußrate vor und nach Einnahme von Methantheliniumbromid in Form von Vagantin® gemessen. […] Die Ergebnisse sind in den Figuren. 2 und 3 dargestellt.
Figur 3 zeigt die Speichelsekretion in Abhängigkeit von der Methanthelinkonzentration im Plasma nach oraler Gabe von 100 mg Wirkstoff an gesunde Freiwillige. Ferner kann von einem Methanthelinbromidgehalt im Plasma von etwa 5 ng/ml über einen Zweitraum von 8 Stunden ausgegangen werden (Figur 1).

[2] = Serum/plasma concentration-time profile after oral dosing in volunteers; format: in vivo, männliche und weiblichen Probanden
Protocol: Die Studie wurde an 12 männliche und weiblichen Probanden im Alter zwischen 18 und 45 Jahren durchgeführt. Der Wirkstoff (Methantheliniumbromid) wurden oral als Filmtablette oder als Lösung appliziert. Zu unterschiedlichen Zeiten nach der Dosierung wurden Messungen vorgenommen und Laborwerte zur Charakterisierung der Wirkung festgestellt.
Im Beispiel wurden 100 mg Wirkstoff als Filmtablette der folgenden Formulierung eingesetzt: • ◆ 50,0 mg Methantheliniumbromid • ◆ 30,0 mg Maisstärke • ◆ 18,75 mg Polyvinylprrolidon • ◆ 4,0 mg hochdisperses Siliziumdioxid • ◆ 146,25 mg Lactosemonohydrat • ◆ 1,0 mg Magnesiumsterarat • ◆ 1,0 mg Hydroxypropylmethylcellulose • ◆ 39,38 mg Talcum • ◆ 6,5 mg Gummi arabicum • ◆ 15,53 mg Calciumcarbonat • ◆ 7,73 mg Titandioxid • ◆ 6,58 mg Weißer Ton • ◆ 0,65 mg Macogol 6000 • ◆ 61,63 mg Saccharose • ◆ 1,0 mg E 100 • ◆ 0,1 mg Carnauba Wachs
Es ist auch möglich, eine reine Lösung von 100 mg Methantheliniumbromid in Wasser als Frischlösung herzustellen. Dabei empfiehlt es sich, den bitteren Geschmack des Wirkstoffes durch angenehme Geschmackskorrigentien zu überdecken. Hier bieten sich z. B. einige Spritzer eines Mundwassers mit Pfefferminzgeschmack an.
Ausdruck dafür ist das in der Figur 1 dargestellte Konzentrations-Zeit-Profil. Zu beachten ist eine deutliche individuelle Schwankungsbreite in der Serumkonzentration nach Zuführung beider Applikationsformen. […]

[3] = system: Würgereiz; test: Gag reflex inhibition after gag stimulus, clinical study; format: in vivo, männlichen und weiblichen gesunden Probanden; conditions: oral 100 mg as Vagantin® film tablet or fresh solution; tested immediately after application and 1, 2 and 6 hours later (Figur 2)
Protocol: as §1, §2, §3

CC[N+](C)(CC)CCOC(=O)C1c2ccccc2Oc2ccccc21.[Br-] [Methantheliniumbromid, N,N-Diethyl-N-methyl-2-(xanthenylcarbonyloxy)ethylammoniumbromid]
Speichelflußrate [1]: deutliche Reduzierung des Speichelflusses
concentration at 8 h ([2]; human, plasma, oral, 100 mg, over a period of 8 hours (Figur 1), read-out: Methanthelinbromidgehalt im Plasma): ~5 ng/mL
Reaktion (Konzentrations-Zeit-Profil, Serumkonzentration) ([2]; oral drinking solution compared with film tablet, 100 mg (Figur 1)): etwas stärkere Reaktion als die Filmtablette
Würgereflexhemmung [3]: deutliche Verzögerung des Würgereizesreflexes
